{
  "source": "paper PMC11879280",
  "about": "“Antimicrobial activity of peptoids against Metallo-β-lactamase-producing Klebsiella pneumoniae, Acinetobacter baumannii, Pseudomonas aeruginosa, and other WHO priority pathogens, including Candida auris” (Journal of Applied Microbiology, 2025)",
  "key": {"[1]": {"test_system": "ESKAPEE pathogens (all bacteria)", "experiment": "Geometric mean MIC, therapeutic index and selectivity ratio, all bacteria", "type": "cell-based", "details": "across the 23 ESKAPEE strains", "procedure": "Briefly, bacteria were suspended in cation-adjusted Mueller–Hinton broth (CAMHB; Oxoid, UK) for antibiotics, or MHB (Oxoid, UK) for peptidomimetics to obtain 5 × 10^5 colony forming unit (CFU) ml^−1. […] Positive controls contained only microbes, and blanks contained only media. Microbial suspensions (100 µl) were added to wells, plates wrapped, and incubated at 37°C, 120 rpm for 16–20 h. After incubation, suspensions were removed, log10 diluted, and plated on Trypticase Soya Agar with phosphatidylcholine and Tween 80 to determine minimum bactericidal or fungicidal concentration (MBC or MFC). […] Geometric mean MIC of the peptoids were calculated to evaluate the broad overview of antimicrobial activity across the pathogens.\nThe therapeutic indices (TIs) of the compounds were calculated with the use of following formula: […]"}, "[2]": {"test_system": "Enteroc. faecalis NCTC 13 379", "details": "Enteroc. faecalis NCTC 13 379", "method_in_brief": "(§1)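 Incubation 37°C, 120 rpm, 16–20 h, starting from 5 × 10^5 CFU/ml in MHB (peptidomimetics) or cation-adjusted MHB (antibiotics). Bactericidal/fungicidal endpoints came from log10-diluted wells plated on Trypticase Soya Agar containing phosphatidylcholine and Tween 80; MICs also summarised as geometric means.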"}, "[3]": {"test_system": "A. baumannii ATCC 19 606", "details": "A. baumannii ATCC 19 606", "method_in_brief": "as §1"}, "[4]": {"test_system": "A. baumannii 006", "details": "A. baumannii 006", "method_in_brief": "as §1"}, "[5]": {"test_system": "E. coli 0011", "details": "E. coli 0011", "method_in_brief": "as §1"}, "[6]": {"test_system": "S. aureus 117", "details": "S. aureus 117", "method_in_brief": "as §1"}, "[7]": {"test_system": "E. coli 005", "details": "E. coli 005", "method_in_brief": "as §1"}, "[8]": {"test_system": "P. aeruginosa AR-1270", "details": "P. aeruginosa AR-1270", "method_in_brief": "as §1"}, "[9]": {"test_system": "En. cloacae 005", "details": "En. cloacae 005", "method_in_brief": "as §1"}, "[10]": {"test_system": "A. baumannii 008", "details": "A. baumannii 008", "method_in_brief": "as §1"}, "[11]": {"test_system": "En. cloacae 003", "details": "En. cloacae 003", "method_in_brief": "as §1"}, "[12]": {"test_system": "E. coli 0015", "details": "E. coli 0015", "method_in_brief": "as §1"}, "[13]": {"test_system": "E. coli 0010", "details": "E. coli 0010", "method_in_brief": "as §1"}, "[14]": {"test_system": "K. pneumoniae JIE2709", "details": "K. pneumoniae JIE2709", "method_in_brief": "as §1"}, "[15]": {"test_system": "P. aeruginosa 216", "details": "P. aeruginosa 216", "method_in_brief": "as §1"}, "[16]": {"test_system": "S. aureus 04", "details": "S. aureus 004", "method_in_brief": "as §1"}, "[17]": {"test_system": "K. pneumoniae JIE2713", "details": "K. pneumoniae JIE2713", "method_in_brief": "as §1"}, "[18]": {"test_system": "S. aureus 105", "details": "S. aureus 105", "method_in_brief": "as §1"}, "[19]": {"test_system": "K. pneumoniae JIE4212", "details": "K. pneumoniae JIE4212", "method_in_brief": "as §1"}, "[20]": {"test_system": "A. baumannii 007", "details": "A. baumannii 007", "method_in_brief": "as §1"}, "[21]": {"test_system": "S. aureus 38", "details": "S. aureus 38", "method_in_brief": "as §1"}, "[22]": {"test_system": "A. baumannii 005", "details": "A. baumannii 005", "method_in_brief": "as §1"}, "[23]": {"test_system": "P. aeruginosa 33", "details": "P. aeruginosa 33", "method_in_brief": "as §1"}, "[24]": {"test_system": "En. cloacae 001", "details": "En. cloacae 001", "method_in_brief": "as §1"}, "[25]": {"details": "MHB (melimine/Mel4 with 0.2% BSA, 0.01% acetic acid), mean MIC"}},
  "note": "Read-outs that look alike come from different tables or passages of the source. Square brackets hold non-standard residues; d marks the D form. Peptide text beside a SMILES is read from it. Nspe = C[C@H](NCC(=O)O)c1ccccc1; Nlys = NCCCCNCC(=O)O",
  "data": [
    {"smiles": "C[C@@H](c1ccccc1)N(CC(N)=O)C(=O)CN(CCCCN)C(=O)CN(C(=O)CN(C(=O)CN(CCCCN)C(=O)CN(C(=O)CN(C(=O)CN(CCCCN)C(=O)CN(C(=O)CN(C(=O)CNCCCCN)[C@@H](C)c1ccccc1)[C@@H](C)c1ccccc1)[C@@H](C)c1ccccc1)[C@@H](C)c1ccccc1)[C@@H](C)c1ccccc1)[C@@H](C)c1ccccc1", "note": "[TM6] (H-[Nlys][Nspe][Nspe][Nlys][Nspe][Nspe][Nlys][Nspe][Nspe][Nlys][Nspe]-NH2)", "values": [
      {"measurement": "Geometric mean MIC, all bacteria", "setting": "[1]", "value": 17.6, "unit": "mg/L"},
      {"measurement": "Geometric mean MIC, all bacteria", "setting": "[1]; value in brackets", "value": 10.6, "unit": "µM"},
      {"measurement": "MIC of peptidomimetics", "setting": "[2]; [25]", "value": 31.25, "unit": "mg/L"},
      {"measurement": "MIC of peptidomimetics", "setting": "[2]; value in brackets", "value": 18.8, "unit": "µM"},
      {"measurement": "MIC of peptidomimetics", "setting": "[3]; [25]", "value": 7.8, "unit": "mg/L"},
      {"measurement": "MIC of peptidomimetics", "setting": "[3]; value in brackets", "value": 4.7, "unit": "µM"},
      {"measurement": "MIC of peptidomimetics", "setting": "[4]; [25]", "value": 7.8, "unit": "mg/L"},
      {"measurement": "MIC of peptidomimetics", "setting": "[4]; value in brackets", "value": 4.7, "unit": "µM"},
      {"measurement": "MIC of peptidomimetics", "setting": "[5]; [25]", "value": 15.6, "unit": "mg/L"},
      {"measurement": "MIC of peptidomimetics", "setting": "[5]; value in brackets", "value": 9.4, "unit": "µM"},
      {"measurement": "MIC of peptidomimetics", "setting": "[6]; [25]", "value": 7.8, "unit": "mg/L"},
      {"measurement": "MIC of peptidomimetics", "setting": "[6]; value in brackets", "value": 4.7, "unit": "µM"},
      {"measurement": "MIC of peptidomimetics", "setting": "[7]; [25]", "value": 62.5, "unit": "mg/L"},
      {"measurement": "MIC of peptidomimetics", "setting": "[7]; value in brackets", "value": 37.7, "unit": "µM"},
      {"measurement": "MIC of peptidomimetics", "setting": "[8]; [25]", "value": 31.3, "unit": "mg/L"},
      {"measurement": "MIC of peptidomimetics", "setting": "[8]; value in brackets", "value": 18.8, "unit": "µM"},
      {"measurement": "MIC of peptidomimetics", "setting": "[9]; [25]", "value": 15.6, "unit": "mg/L"},
      {"measurement": "MIC of peptidomimetics", "setting": "[9]; value in brackets", "value": 9.4, "unit": "µM"},
      {"measurement": "MIC of peptidomimetics", "setting": "[10]; [25]", "value": 15.6, "unit": "mg/L"},
      {"measurement": "MIC of peptidomimetics", "setting": "[10]; value in brackets", "value": 9.4, "unit": "µM"},
      {"measurement": "MIC of peptidomimetics", "setting": "[11]; [25]", "value": 15.6, "unit": "mg/L"},
      {"measurement": "MIC of peptidomimetics", "setting": "[11]; value in brackets", "value": 9.4, "unit": "µM"},
      {"measurement": "MIC of peptidomimetics", "setting": "[12]; [25]", "value": 62.5, "unit": "mg/L"},
      {"measurement": "MIC of peptidomimetics", "setting": "[12]; value in brackets", "value": 37.7, "unit": "µM"},
      {"measurement": "MIC of peptidomimetics", "setting": "[13]; [25]", "value": 62.5, "unit": "mg/L"},
      {"measurement": "MIC of peptidomimetics", "setting": "[13]; value in brackets", "value": 37.7, "unit": "µM"},
      {"measurement": "MIC of peptidomimetics", "setting": "[14]; [25]", "value": 31.3, "unit": "mg/L"},
      {"measurement": "MIC of peptidomimetics", "setting": "[14]; value in brackets", "value": 18.8, "unit": "µM"},
      {"measurement": "MIC of peptidomimetics", "setting": "[15]; [25]", "value": 15.6, "unit": "mg/L"},
      {"measurement": "MIC of peptidomimetics", "setting": "[15]; value in brackets", "value": 9.4, "unit": "µM"},
      {"measurement": "MIC of peptidomimetics", "setting": "[16]; [25]", "value": 7.8, "unit": "mg/L"},
      {"measurement": "MIC of peptidomimetics", "setting": "[16]; value in brackets", "value": 4.7, "unit": "µM"},
      {"measurement": "MIC of peptidomimetics", "setting": "[17]; [25]", "value": 62.5, "unit": "mg/L"},
      {"measurement": "MIC of peptidomimetics", "setting": "[17]; value in brackets", "value": 37.7, "unit": "µM"},
      {"measurement": "MIC of peptidomimetics", "setting": "[18]; [25]", "value": 7.8, "unit": "mg/L"},
      {"measurement": "MIC of peptidomimetics", "setting": "[18]; value in brackets", "value": 4.7, "unit": "µM"},
      {"measurement": "MIC of peptidomimetics", "setting": "[19]; [25]", "value": 15.6, "unit": "mg/L"},
      {"measurement": "MIC of peptidomimetics", "setting": "[19]; value in brackets", "value": 9.4, "unit": "µM"},
      {"measurement": "MIC of peptidomimetics", "setting": "[20]; [25]", "value": 7.8, "unit": "mg/L"},
      {"measurement": "MIC of peptidomimetics", "setting": "[20]; value in brackets", "value": 4.7, "unit": "µM"},
      {"measurement": "MIC of peptidomimetics", "setting": "[21]; [25]", "value": 7.8, "unit": "mg/L"},
      {"measurement": "MIC of peptidomimetics", "setting": "[21]; value in brackets", "value": 4.7, "unit": "µM"},
      {"measurement": "MIC of peptidomimetics", "setting": "[22]; [25]", "value": 7.8, "unit": "mg/L"},
      {"measurement": "MIC of peptidomimetics", "setting": "[22]; value in brackets", "value": 4.7, "unit": "µM"},
      {"measurement": "MIC of peptidomimetics", "setting": "[23]; [25]", "value": 31.3, "unit": "mg/L"},
      {"measurement": "MIC of peptidomimetics", "setting": "[23]; value in brackets", "value": 18.8, "unit": "µM"},
      {"measurement": "MIC of peptidomimetics", "setting": "[24]; [25]", "value": 15.6, "unit": "mg/L"},
      {"measurement": "MIC of peptidomimetics", "setting": "[24]; value in brackets", "value": 9.4, "unit": "µM"}
    ]}
  ]
}
